What was measured:
Assay type in all cases: in vivo
Agrostis stolonifera = test: greenhouse test, pre-emergence treatment, AGSST; settings: 2000 g/ha
Source text: (§1) The culture containers used were plastic flowerpots containing loamy sand with approximately 3.0% of humus as the substrate. The seeds of the test plants were sown separately for each species.
(§2) For the pre-emergence treatment, the active ingredients, which had been suspended or emulsified in water, were applied directly after sowing by means of finely distributing nozzles. The containers were irrigated gently to promote germination and growth and subsequently covered with transparent plastic hoods until the plants had rooted. This cover caused uniform germination of the test plants, unless this had been impaired by the active ingredients.
(§3) Depending on the species, the plants were kept at 10-25° C. or 20-35° C., respectively.
(§4) The test period extended over 2 to 4 weeks. During this time, the plants were tended, and their response to the individual treatments was evaluated.
(§5) Evaluation was carried out using a scale from 0 to 100. 100 means no emergence of the plants, or complete destruction of at least the aerial moieties, and 0 means no damage, or normal course of growth. A good herbicidal activity is given at values of at least 70 and a very good herbicidal activity is given at values of at least 85.
(§6) The plants used in the greenhouse experiments were of the following species: […]

Matricaria inodora = test: greenhouse test, post-emergence treatment, MATIN; settings: 2000 g/ha
Source text: as §1
(§7) For the post-emergence treatment, the test plants were first grown to a height of 3 to 15 cm, depending on the plant habit, and only then treated with the active ingredients which had been suspended or emulsified in water. For this purpose, the test plants were either sown directly and grown in the same containers, or they were first grown separately as seedlings and transplanted into the test containers a few days prior to treatment.
as §3, §4, §5, §6

Poa annua [1] = test: greenhouse test, pre-emergence treatment, POAAN; settings: 2000 g/ha
Source text: as §1, §2, §3, §4, §5, §6

Alopecurus myosuroides = test: greenhouse test, post-emergence treatment, ALOMY
How it was run: (§8)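 Herbicidal effect is rated 0–100, where 100 denotes total destruction of aerial parts and 0 denotes unaffected growth. Treatment occurs once plants reach 3–15 cm in humus-containing loamy sand, with compound applied in water; the trial runs 2–4 weeks at 10–25 °C or 20–35 °C.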

Echinocloa crus-galli [2] = test: greenhouse test, post-emergence treatment, ECHCG
How it was run: as §8

Echinocloa crus-galli [3] = test: greenhouse test, pre-emergence treatment, ECHCG
How it was run: (§9)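 Herbicidal effect rated on a 0-100 scale, where 0 is normal growth and 100 is no emergence or destroyed aerial parts, 2 to 4 weeks after soil application at sowing.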

Apera spica-venti [4] = test: greenhouse test, pre-emergence treatment, APESV
How it was run: as §9

Amaranthus retroflexus [5] = test: greenhouse test, post-emergence treatment, AMARE
How it was run: as §8

Apera spica-venti [6] = test: greenhouse test, post-emergence treatment, APESV; settings: 500 g/ha
Source text: as §1, §7, §3, §4, §5, §6

Polygonum convolvulus = test: greenhouse test, post-emergence treatment, POLCO; settings: 500 g/ha
Source text: as §1, §7, §3, §4, §5, §6

Amaranthus retroflexus [7] = test: greenhouse test, pre-emergence treatment, AMARE
Source text: as §1, §2, §3, §4, §5, §6

Setaria faberi = test: greenhouse test, pre-emergence treatment, SETFA
Source text: as §1, §2, §3, §4, §5, §6

Abutilon theophrasti = test: greenhouse test, post-emergence treatment, ABUTH; settings: 1000 g/ha
Source text: as §1, §7, §3, §4, §5, §6

Avena fatua = test: greenhouse test, post-emergence treatment, AVEFA; settings: 2000 g/ha
How it was run: as §8

Setaria viridis = test: greenhouse test, post-emergence treatment, SETVI; settings: 1000 g/ha
How it was run: as §8

Poa annua [8] = test: greenhouse test, post-emergence treatment, POAAN; settings: 2000 g/ha
Source text: as §1, §7, §3, §4, §5, §6

[9] = 500 g/ha, printed under post-emergence, method not restated

N#CC(C#N)c1nc(C2CC2)ncc1-c1ccc(F)cc1Br [Ex. 36]
herbicidal activity (Agrostis stolonifera): very good (a very good herbicidal activity is given at values of at least 85) | herbicidal activity (Matricaria inodora): very good (a very good herbicidal activity is given at values of at least 85) | herbicidal activity (Poa annua [1]): very good (a very good herbicidal activity is given at values of at least 85)

Brc1ccccc1-c1cnc(C2CC2)nc1C(Br)Br [Ex. 27]
herbicidal activity (Agrostis stolonifera): very good (a very good herbicidal activity is given at values of at least 85) | herbicidal activity (Alopecurus myosuroides; post-emergence, 2000 g/ha): very good (a very good herbicidal activity is given at values of at least 85) | herbicidal activity (Echinocloa crus-galli [2]; post-emergence, 2000 g/ha): very good (a very good herbicidal activity is given at values of at least 85) | herbicidal activity (Echinocloa crus-galli [3]; 2000 g/ha): very good (a very good herbicidal activity is given at values of at least 85) | herbicidal activity (Apera spica-venti [4]; 2000 g/ha): very good (a very good herbicidal activity is given at values of at least 85) | herbicidal activity (Amaranthus retroflexus [5]; 2000 g/ha): very good (a very good herbicidal activity is given at values of at least 85)

CCc1nc(CC)c(-c2nc(C3CC3)ncc2-c2ccccc2Cl)o1 [Ex. 310]
herbicidal activity (Apera spica-venti [6]): very good (a very good herbicidal activity is given at values of at least 85) | herbicidal activity (Polygonum convolvulus): very good (a very good herbicidal activity is given at values of at least 85) | herbicidal activity (Alopecurus myosuroides; [9]): very good (a very good herbicidal activity is given at values of at least 85) | herbicidal activity (Alopecurus myosuroides; post-emergence, 500 g/ha): very good (a very good herbicidal activity is given at values of at least 85) | herbicidal activity (Echinocloa crus-galli [2]; [9]): very good (a very good herbicidal activity is given at values of at least 85) | herbicidal activity (Amaranthus retroflexus [5]; 500 g/ha): very good (a very good herbicidal activity is given at values of at least 85)

COC(=O)C(C)c1nc(C2CC2)ncc1-c1ccccc1Cl (centres unmarked) [Ex. 87]
herbicidal activity (Alopecurus myosuroides; post-emergence, 2000 g/ha): very good (a very good herbicidal activity is given at values of at least 85) | herbicidal activity (Amaranthus retroflexus [7]; 2000 g/ha): good (A good herbicidal activity is given at values of at least 70)

Cc1cocc1-c1nc(C2CC2)ncc1-c1ccccc1Br [Ex. 269]
herbicidal activity (Echinocloa crus-galli [2]; post-emergence, 1000 g/ha): very good (a very good herbicidal activity is given at values of at least 85) | herbicidal activity (Setaria faberi; 1000 g/ha): very good (a very good herbicidal activity is given at values of at least 85)

N#CC(C#N)c1nc(C2CC2)ncc1-c1ccccc1Br [Ex. 25]
herbicidal activity (Agrostis stolonifera): very good (a very good herbicidal activity is given at values of at least 85) | herbicidal activity (Matricaria inodora): very good (a very good herbicidal activity is given at values of at least 85) | herbicidal activity (Poa annua [1]): very good (a very good herbicidal activity is given at values of at least 85)

COCC(=Cc1nc(C2CC2)ncc1-c1ccccc1Cl)COC [Ex. 293]
herbicidal activity (Echinocloa crus-galli [3]; 1000 g/ha): good (A good herbicidal activity is given at values of at least 70) | herbicidal activity (Setaria faberi; 1000 g/ha): very good (a very good herbicidal activity is given at values of at least 85) | herbicidal activity (Abutilon theophrasti): good (A good herbicidal activity is given at values of at least 70)

O=[N+]([O-])c1ccccc1-c1cnc(C2CC2)nc1-c1ccco1 [Ex. 37]
herbicidal activity (Setaria faberi; 2000 g/ha): good (A good herbicidal activity is given at values of at least 70)

COc1ncc(OC)c(-c2nc(C3CC3)ncc2-c2ccccc2Cl)n1 [Ex. 251]
herbicidal activity (Amaranthus retroflexus [7]; 500 g/ha): very good (a very good herbicidal activity is given at values of at least 85)

Cc1nc(C2CC2)ncc1-c1ccccc1C(F)(F)F [Ex. 17]
herbicidal activity (Agrostis stolonifera): very good (a very good herbicidal activity is given at values of at least 85) | herbicidal activity (Echinocloa crus-galli [3]; 2000 g/ha): very good (a very good herbicidal activity is given at values of at least 85) | herbicidal activity (Setaria faberi; 2000 g/ha): very good (a very good herbicidal activity is given at values of at least 85)

OC1(c2nc(C3CC3)ncc2-c2ccccc2Cl)C(F)(F)C(F)(F)C(F)(F)C(F)(F)C1(F)F [Ex. 229]
herbicidal activity (Amaranthus retroflexus [7]; 1000 g/ha): good (A good herbicidal activity is given at values of at least 70) | herbicidal activity (Apera spica-venti [4]; 1000 g/ha): very good (a very good herbicidal activity is given at values of at least 85)

Cc1noc(-c2nc(C3CC3)ncc2-c2ccccc2Cl)n1 [Ex. 295]
herbicidal activity (Alopecurus myosuroides; post-emergence, 2000 g/ha): very good (a very good herbicidal activity is given at values of at least 85) | herbicidal activity (Amaranthus retroflexus [7]; 2000 g/ha): very good (a very good herbicidal activity is given at values of at least 85) | herbicidal activity (Echinocloa crus-galli [3]; 2000 g/ha): very good (a very good herbicidal activity is given at values of at least 85) | herbicidal activity (Apera spica-venti [4]; 2000 g/ha): very good (a very good herbicidal activity is given at values of at least 85) | herbicidal activity (Avena fatua): very good (a very good herbicidal activity is given at values of at least 85)

Clc1ccccc1-c1cnc(C2CC2)nc1C1CCOC1 (centres unmarked) [Ex. 59]
herbicidal activity (Setaria viridis): very good (a very good herbicidal activity is given at values of at least 85) | herbicidal activity (Echinocloa crus-galli [2]; post-emergence, 1000 g/ha): good (A good herbicidal activity is given at values of at least 70) | herbicidal activity (Echinocloa crus-galli [3]; 1000 g/ha): very good (a very good herbicidal activity is given at values of at least 85) | herbicidal activity (Setaria faberi; 1000 g/ha): good (A good herbicidal activity is given at values of at least 70)

CCc1ncoc1-c1nc(C2CC2)ncc1-c1ccccc1Cl [Ex. 286]
herbicidal activity (Echinocloa crus-galli [2]; post-emergence, 1000 g/ha): very good (a very good herbicidal activity is given at values of at least 85) | herbicidal activity (Amaranthus retroflexus [7]; 1000 g/ha): very good (a very good herbicidal activity is given at values of at least 85) | herbicidal activity (Echinocloa crus-galli [3]; 1000 g/ha): very good (a very good herbicidal activity is given at values of at least 85) | herbicidal activity (Apera spica-venti [4]; 1000 g/ha): very good (a very good herbicidal activity is given at values of at least 85) | herbicidal activity (Abutilon theophrasti): very good (a very good herbicidal activity is given at values of at least 85) | herbicidal activity (Amaranthus retroflexus [5]; 1000 g/ha): very good (a very good herbicidal activity is given at values of at least 85)

Fc1ccc(-c2nc(C3CC3)ncc2-c2ccccc2Cl)cc1 [Ex. 11]
herbicidal activity (Echinocloa crus-galli [3]; 2000 g/ha): good (A good herbicidal activity is given at values of at least 70) | herbicidal activity (Setaria faberi; 2000 g/ha): very good (a very good herbicidal activity is given at values of at least 85)

Clc1ccccc1-c1cnc(C2CC2)nc1C(Br)Br [Ex. 35]
herbicidal activity (Agrostis stolonifera): very good (a very good herbicidal activity is given at values of at least 85) | herbicidal activity (Alopecurus myosuroides; post-emergence, 2000 g/ha): very good (a very good herbicidal activity is given at values of at least 85) | herbicidal activity (Echinocloa crus-galli [2]; post-emergence, 2000 g/ha): very good (a very good herbicidal activity is given at values of at least 85) | herbicidal activity (Echinocloa crus-galli [3]; 2000 g/ha): very good (a very good herbicidal activity is given at values of at least 85) | herbicidal activity (Apera spica-venti [4]; 2000 g/ha): very good (a very good herbicidal activity is given at values of at least 85) | herbicidal activity (Amaranthus retroflexus [5]; 2000 g/ha): very good (a very good herbicidal activity is given at values of at least 85)

CCc1nc(CC)c(-c2nc(C3CC3)ncc2-c2ccccc2Br)o1 [Ex. 311]
herbicidal activity (Apera spica-venti [6]): very good (a very good herbicidal activity is given at values of at least 85) | herbicidal activity (Polygonum convolvulus): very good (a very good herbicidal activity is given at values of at least 85) | herbicidal activity (Alopecurus myosuroides; [9]): very good (a very good herbicidal activity is given at values of at least 85) | herbicidal activity (Alopecurus myosuroides; post-emergence, 500 g/ha): very good (a very good herbicidal activity is given at values of at least 85) | herbicidal activity (Echinocloa crus-galli [2]; [9]): very good (a very good herbicidal activity is given at values of at least 85) | herbicidal activity (Amaranthus retroflexus [5]; 500 g/ha): very good (a very good herbicidal activity is given at values of at least 85)

COC(C)Cc1nc(C2CC2)ncc1-c1ccccc1Cl (centres unmarked) [Ex. 233]
herbicidal activity (Amaranthus retroflexus [7]; 2000 g/ha): very good (a very good herbicidal activity is given at values of at least 85)

Clc1ccccc1-c1cnc(C2CC2)nc1-c1ccnnc1 [Ex. 234]
herbicidal activity (Apera spica-venti [4]; 2000 g/ha): very good (a very good herbicidal activity is given at values of at least 85) | herbicidal activity (Poa annua [8]): good (A good herbicidal activity is given at values of at least 70)

OC(c1cccs1)C(O)c1nc(C2CC2)ncc1-c1ccccc1Cl (centres unmarked) [Ex. 246]
herbicidal activity (Amaranthus retroflexus [7]; 500 g/ha): very good (a very good herbicidal activity is given at values of at least 85)

Source: patent publication US11178871B2, “Herbicidal pyrimidine compounds” (BASF SE, priority 2016, dated 2021)
